In brackets after ≈: the same amount, converted by molar mass. Several values for one entry are separate records, joined by “and”; a condition that tells them apart may be missing. Equal entries are not always repeated. Where two headings read alike, the source gives them in different places.
Legend:
Streptococcus bovis 80 = assay: MIC, broth-dilution microtiter test, Streptococcus bovis 80; format: cell-based
Source text: (§1) The MIC's in Table X were obtained using conventional broth-dilution microtiter tests.

[1] = tested on: Staphylococcus aureus X400; assay: MIC, standard agar-dilution assay, Staphylococcus aureus X400; format: cell-based
Mycoplasma synoviae = assay: MIC, broth-dilution microtiter test, Mycoplasma synoviae; format: cell-based; settings: Mycoplasmopsis synoviae
Source text: as §1

[2] = tested on: Haemophilus influenzae Holt; assay: MIC, standard agar-dilution assay, Haemophilus influenzae Holt; format: cell-based
[3] = tested on: Pasteurella multocida 60A; assay: MIC, broth-dilution microtiter test, Pasteurella multocida 60A; format: cell-based; settings: Pasteurella multocida 60A; avian isolate; broth-dilution microtiter; read-out: MIC
Source text: as §1

Mycoplasma gallisepticum [4] = assay: MIC, broth-dilution microtiter test, Mycoplasma gallisepticum; format: cell-based
Source text: as §1

[5] = tested on: Staphylococcus aureus V41; assay: MIC, standard agar-dilution assay, Staphylococcus aureus V41; format: cell-based
Streptococcus Group 9960 = assay: MIC, standard agar-dilution assay, Streptococcus Group 9960; format: cell-based
[6] = tested on: Pasteurella hemolytica 22C; assay: MIC, broth-dilution microtiter test, Pasteurella hemolytica 22C; format: cell-based; settings: Pasteurella hemolytica 22C, broth-dilution microtiter
Source text: as §1

[7] = tested on: Staphylococcus aureus S13E; assay: MIC, standard agar-dilution assay, Staphylococcus aureus S13E; format: cell-based
[8] = tested on: Pasteurella multocida 17E; assay: MIC, broth-dilution microtiter test, Pasteurella multocida 17E; format: cell-based; settings: Pasteurella multocida 17E; bovine isolate; broth-dilution microtiter; read-out: MIC
Source text: as §1

Mycoplasma hyopneumoniae = assay: MIC, broth-dilution microtiter test, Mycoplasma hyopneumoniae; format: cell-based; settings: Mesomycoplasma hyopneumoniae; Mycoplasma hyopneumoniae; broth-dilution microtiter; read-out: MIC
Source text: as §1

Mycoplasma gallisepticum [9] = assay: Antimycoplasmal activity in chicks infected with Mycoplasma gallisepticum; format: in vivo, two- to three-day-old chicks; settings: gavage five times, equivalent to 0.5 g/gal; for Number with Antibodies/Number Tested: antibodies to M. gallisepticum; for Number with Antibodies/Number Tested / Number with Air-Sac Lesions/Number Treated: 21 days post-infection
Description: In these tests infections were induced in chicks by injecting 0.2 ml of a broth culture of M. gallisepticum into the abdominal air sac of two- to three-day-old chicks. The compounds were administered by gavage five times at a dose equivalent to 0.5 g/gal (on the day of challenge once prior to and once following the challenge, two times on the next day and once on the third day). Twenty-one days post-infection, the chicks were weighed, a blood sample was taken, and the chicks were sacrificed. The presence or absence of air-sac lesions was recorded.

Mycoplasma hyorhinis = assay: MIC, broth-dilution microtiter test, Mycoplasma hyorhinis; format: cell-based
Source text: as §1

[10] = tested on: Streptococcus pyogenes C203; assay: MIC, standard agar-dilution assay, Streptococcus pyogenes C203; format: cell-based
[11] = tested on: Streptococcus Group D X66; assay: MIC, standard agar-dilution assay, Streptococcus Group D X66; format: cell-based
[12] = tested on: Staphylococcus epidermidis EPI1; assay: MIC, standard agar-dilution assay, Staphylococcus epidermidis EPI1; format: cell-based
[13] = tested on: Haemophilus influenzae R252; assay: MIC, standard agar-dilution assay, Haemophilus influenzae R252; format: cell-based
[14] = tested on: Streptococcus pyogenes C203; assay: In vivo protection of mice experimentally infected with S. pyogenes C203; settings: mice, doses given 1 and 4 hours post-infection; for ED50: Streptococcus pyogenes
Description: The C-20 modified derivatives of this invention have shown in vivo antimicrobial activity against experimentally-induced infections in laboratory animals. When two doses of test compound were administered to mice experimentally infected with S. pyogenes C203, the activity observed was measured as an ED50 value [effective dose in mg/kg to protect 50% of the test animals: see Warren Wick, et al., J. Bacteriol. 81, 233-235 (1961)].

Pasteurella multocida [15] = assay: Subcutaneous treatment of Pasteurella multocida-infected chicks; format: in vivo, one-day-old chicks; settings: 30 mg/kg × 2, 1 and 4 hours post-challenge
Description: Many of the C-20 modified derivatives of this invention have also shown in vivo antibacterial activity against infections induced by gram-negative bacteria. Tables XII and XIII summarize the results of tests in which illustrative compounds were evaluated against Pasteurella infection in one-day-old chicks. The compounds were administered parenterally or orally after challenge of the chicks with Pasteurella multocida (0.1 ml of a 10^-4 dilution of a twenty-hour tryptose broth culture of an avian P. multocida given subcutaneously). In these tests, unless indicated otherwise, all non-medicated infected chicks died within 24 hours of Pasteurella challenge. In the tests summarized in Table XII the compounds were administered by subcutaneous injection at a dosage of 30 mg/kg, 1 and 4 hours post-challenge of the chicks with P. multocida. In the test summarized in Table XIII the compounds were administered by gavage at 1 and 5 hours post-challenge of the chicks with P. multocida.

[16] = tested on: Staphylococcus aureus X1.1; assay: MIC, standard agar-dilution assay, Staphylococcus aureus X1.1; format: cell-based
[17] = tested on: Streptococcus pneumoniae Park I; assay: microbe, parasite or virus in culture; format: cell-based
[18] = tested on: Staphylococcus epidermidis EPI2; assay: MIC, standard agar-dilution assay, Staphylococcus epidermidis EPI2; format: cell-based; settings: Staphylococcus epidermidis EPI2; agar dilution; read-out: MIC
Staphylococcus aureus = assay: MIC, broth-dilution microtiter test, Staphylococcus aureus; format: cell-based
Source text: as §1

Pasteurella multocida [19] = assay: Oral (gavage) treatment of Pasteurella multocida-infected chicks; format: in vivo, one-day-old chicks
Summary of the method: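 Dosing either by gavage at 1 and 5 h after infection, or subcutaneously at 30 mg/kg at 1 and 4 h after infection. Birds were day-old chicks infected s.c. with 0.1 ml of avian Pasteurella multocida culture (twenty-hour tryptose broth, diluted 10^-4).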

[20] = Streptococcus equinus, Streptococcus bovis 80, broth-dilution microtiter, read-out: MIC
[21] = Mycoplasma synoviae, broth-dilution microtiter, read-out: MIC
[22] = Mycoplasmoides gallisepticum, Mycoplasma gallisepticum, broth-dilution microtiter, read-out: MIC
[23] = Staphylococcus epidermidis, EPI1
[24] = C203, sc, subcutaneous, read-out: ED50, Subcutaneous
[25] = C203, oral, read-out: ED50, Oral
[26] = broth-dilution microtiter, read-out: MIC

Row | Structure (SMILES) | MIC (Streptococcus bovis 80; [20]) [µg/mL] | MIC ([1]; Staphylococcus aureus, X400) [µg/mL] | MIC (Mycoplasma synoviae; [21]) [µg/mL] | MIC ([2]; Haemophilus influenzae) [µg/mL] | MIC [3] [µg/mL] | MIC (Mycoplasma gallisepticum [4]; [22]) [µg/mL] | MIC ([5]; Staphylococcus aureus, V41) [µg/mL] | MIC (Streptococcus Group 9960; GROUP9960) [µg/mL] | MIC ([6]; read-out: MIC) [µg/mL] | MIC ([7]; Staphylococcus aureus, S13E) [µg/mL] | MIC [8] [µg/mL] | MIC (Mycoplasma hyopneumoniae) [µg/mL] | Number with Antibodies/Number Tested (Mycoplasma gallisepticum [9]) | Mortality (Mycoplasma gallisepticum [9]) | Number with Air-Sac Lesions/Number Treated (Mycoplasma gallisepticum [9]) | MIC (Mycoplasma hyorhinis; Mycoplasma) [µg/mL] | ED50 [14, 24] [mg/kg] | ED50 [14, 25] [mg/kg] | Number of Deaths/Number Treated (Pasteurella multocida [15]) | MIC ([16]; Staphylococcus aureus, X1.1) [µg/mL] | also measured
1 | CCC1OC(=O)CC(O)C(C)C(OC2OC(C)C(O)C(N(C)C)C2O)C(CCOC(=O)COc2ccccc2)CC(C)C(=O)C=CC(C)=CC1COC1OC(C)C(O)C(OC)C1OC (centres unmarked) [Compound 26, 20-DH-20-O-(Phenoxyacetyl)desmycosin] | 1.56 (≈ 1.72 µM) | 0.5 (≈ 0.551 µM) | 1.56 (≈ 1.72 µM) | 8 (≈ 8.81 µM) | 6.25 (≈ 6.88 µM) | < 0.05 | 0.25 (≈ 0.275 µM) | 0.5 (≈ 0.551 µM) | 12.5 (≈ 13.8 µM) | 0.25 (≈ 0.275 µM) | 6.25 (≈ 6.88 µM) | 0.78 (≈ 0.859 µM) | 7/9 | 1/10 | 5/10 | 50 (≈ 55.1 µM) | 2.4 | > 25 | 8/10 | 0.25 (≈ 0.275 µM) | MIC ([10]; Streptococcus pyogenes, C203): 0.12 µg/mL (≈ 0.132 µM); MIC [11]: 0.5 µg/mL (≈ 0.551 µM); MIC [12, 23]: 0.25 µg/mL (≈ 0.275 µM); MIC ([13]; Haemophilus influenzae, R252): 8 µg/mL (≈ 8.81 µM); MIC ([17]; Streptococcus pneumoniae Park I, agar dilution, read-out: MIC): 0.12 µg/mL (≈ 0.132 µM); MIC [18]: 0.12 µg/mL (≈ 0.132 µM); MIC (Staphylococcus aureus; [26]): 0.39 µg/mL (≈ 0.429 µM)
2 | CCC1OC(=O)CC(O)C(C)C(OC2OC(C)C(O)C(N(C)C)C2O)C(CCN=[N+]=[N-])CC(C)C(=O)C=CC(C)=CC1COC1OC(C)C(O)C(OC)C1OC (centres unmarked) [Compound 44, 20-DH-DO-20-Azidodesmycosin] | – | – | – | – | – | – | – | – | – | – | – | – | 9/10 | 0/10 | 7/10 | – | – | – | 9/10 | – | MIC (Streptococcus bovis 80; Streptococcus bovis 80, broth-dilution microtiter): 6.25 µg/mL (≈ 7.82 µM); MIC ([1]; Staphylococcus aureus X400, methicillin-resistant strain, agar dilution): 0.25 µg/mL (≈ 0.313 µM); MIC ([2]; Haemophilus influenzae Holt, ampicillin-sensitive strain, agar dilution): 16 µg/mL (≈ 20 µM); MIC (Mycoplasma gallisepticum [4]; Mycoplasma gallisepticum, broth-dilution microtiter): 0.39 µg/mL (≈ 0.488 µM); MIC ([5]; Staphylococcus aureus V41, penicillin-resistant strain, agar dilution): 0.12 µg/mL (≈ 0.15 µM); MIC (Streptococcus Group 9960; Streptococcus Group 9960, agar dilution): 8 µg/mL (≈ 10 µM); MIC [6]: 12.5 µg/mL (≈ 15.6 µM); MIC ([7]; Staphylococcus aureus S13E, agar dilution): 0.12 µg/mL (≈ 0.15 µM); MIC (Mycoplasma hyorhinis; Mycoplasma hyorhinis, broth-dilution microtiter): 50 µg/mL (≈ 62.6 µM); MIC ([10]; Streptococcus pyogenes C203, agar dilution): 0.25 µg/mL (≈ 0.313 µM); MIC ([11]; Streptococcus Group D X66, agar dilution): 4 µg/mL (≈ 5.01 µM); MIC ([12]; Staphylococcus epidermidis EPI1, agar dilution): 0.12 µg/mL (≈ 0.15 µM); MIC ([13]; Haemophilus influenzae R252, ampicillin-resistant strain, agar dilution): 4 µg/mL (≈ 5.01 µM); ED50, Oral ([14]; oral): 13 mg/kg × 2; ED50, Subcutaneous ([14]; subcutaneous): 3.8 mg/kg × 2; MIC ([16]; Staphylococcus aureus X1.1, agar dilution): 0.12 µg/mL (≈ 0.15 µM); MIC ([17]; Streptococcus pneumoniae Park I, agar dilution): 2 µg/mL (≈ 2.5 µM); MIC (Staphylococcus aureus; broth-dilution microtiter): 0.39 µg/mL (≈ 0.488 µM)
3 | CCC1OC(=O)CC(O)C(C)C(OC2OC(C)C(O)C(N(C)C)C2O)C(CC2Nc3ccccc3S2)CC(C)C(=O)C=CC(C)=CC1COC1OC(C)C(O)C(OC)C1OC (centres unmarked) [Compound 75] | – | 0.5 (≈ 0.569 µM) | – | 16 (≈ 18.2 µM) | 25 (≈ 28.4 µM) | – | 0.25 (≈ 0.284 µM) | 2 (≈ 2.27 µM) | 25 (≈ 28.4 µM) | 0.25 (≈ 0.284 µM) | 25 (≈ 28.4 µM) | 0.19 (≈ 0.216 µM) | 9/9 | 1/10 | 3/10 | 50 (≈ 56.9 µM) | 1.7 | 30 | 4/10 | 0.25 (≈ 0.284 µM) | MIC (Streptococcus bovis 80; Streptococcus equinus, 80): 3.12 µg/mL (≈ 3.55 µM); MIC (Mycoplasma synoviae): 1.56 µg/mL (≈ 1.77 µM); MIC (Mycoplasma gallisepticum [4]; Mycoplasmoides gallisepticum): 1.56 µg/mL (≈ 1.77 µM); Number of Deaths/Number tested (Pasteurella multocida [19]; 1.0 g/gal equivalent): 6/9; Number of Deaths/Number tested (Pasteurella multocida [19]; 2.0 g/gal equivalent): 3/9 and 4/10; MIC ([10]; Streptococcus pyogenes, C203): 0.5 µg/mL (≈ 0.569 µM); MIC [11]: 2 µg/mL (≈ 2.27 µM); MIC [12, 23]: 0.25 µg/mL (≈ 0.284 µM); MIC ([13]; Haemophilus influenzae, R252): 16 µg/mL (≈ 18.2 µM); MIC ([17]; Streptococcus pneumoniae): 0.25 µg/mL (≈ 0.284 µM); MIC [18]: 0.12 µg/mL (≈ 0.136 µM); MIC (Staphylococcus aureus): 0.78 µg/mL (≈ 0.887 µM)
4 | CCC1OC(=O)CC(O)C(C)C(OC2OC(C)C(O)C(N(C)C)C2O)C(CCSc2nnnn2C)CC(C)C(=O)C=CC(C)=CC1COC1OC(C)C(O)C(OC)C1OC (centres unmarked) [Compound 24, 20-DH-DO-20-[(1-N-Methyltetrazol-5-yl)thio]desmycosin] | 12.5 (≈ 14.3 µM) | 1 (≈ 1.15 µM) | 0.78 (≈ 0.894 µM) | – | 12.5 (≈ 14.3 µM) | 1.56 (≈ 1.79 µM) | 0.5 (≈ 0.573 µM) | – | 12.5 (≈ 14.3 µM) | 0.5 (≈ 0.573 µM) | 12.5 (≈ 14.3 µM) | 12.5 (≈ 14.3 µM) | 10/10 | 0/10 | 6/10 | 50 (≈ 57.3 µM) | 2.4 | 50 | 2/10 and 0/10 | 0.5 (≈ 0.573 µM) | MIC (Streptococcus Group 9960; GROUP9960, Streptococcus Group 9960, agar dilution, read-out: MIC): 32 µg/mL (≈ 36.7 µM); Number of Deaths/Number tested (Pasteurella multocida [19]; 1.0 g/gal equivalent): 2/9; Number of Deaths/Number tested (Pasteurella multocida [19]; 2.0 g/gal equivalent): 1/9; MIC ([10]; Streptococcus pyogenes C203, agar dilution, read-out: MIC): 0.25 µg/mL (≈ 0.287 µM); MIC ([11]; Streptococcus Group D X66, agar dilution, read-out: MIC): 16 µg/mL (≈ 18.3 µM); MIC ([12]; Staphylococcus epidermidis EPI1, agar dilution, read-out: MIC): 0.25 µg/mL (≈ 0.287 µM); MIC ([17]; Streptococcus pneumoniae): 2 µg/mL (≈ 2.29 µM); MIC (Staphylococcus aureus; [26]): 0.78 µg/mL (≈ 0.894 µM)
